Laboratory results from US5486508A, “Cyclodextrin composition” (TAKEDA Chemical Industries Ltd., priority 1991, dated 1996).
Values after ≈ are worked out from the molar mass of the structure shown. Read-outs that look alike come from different tables or passages of the source.

Experiments:
[1] = Solubility of diazepam or clofibrate complex with G2 βCD versus drug alone
Source text: The solubility of the complex was compared with that of the drug alone.

[2] = water
Experimental: (§1) The aqueous solution was added to the above ethyl alcohol solution with stirring. The solution thus obtained was lyophilized to obtain a powder.
(§2) After 4 hours, the mixture was filtered through a filter having pore size of 0.22 μm.

[3] = Stability of powders at 40° C. for 2 weeks (residual amount of Compound A by HPLC); type: physicochemical; settings: powder storage, 336 h
Experimental: The residual amounts of Compound A was determined by HPLC.

[4] = water; remark: listed apart in the source
Experimental: as §1, §2

| SMILES | solubility [1] [µg/mL] | Comparison of solubilities (solubility concentration of Compound A) [2] [µg/mL] | Stability, Residual rate [3] [%] | Comparison of solubilities (solubility concentration of Compound A) [4] [µg/mL] |
| --- | --- | --- | --- | --- |
| CCOC(=O)C(C)(C)Oc1ccc(Cl)cc1 [Clofibrate, clofibrate] | 36 (≈ 148 µM) | – | – | – |
| CO[C@@H]1[C@H](OC(=O)NC(=O)CCl)CC[C@]2(CO2)[C@H]1[C@@]1(C)O[C@@H]1CC=C(C)C [Compound A, 6-O-(N-chloroacetylcarbamoyl)fumagillol] | – | 1700 | 81.4 | 1700 |
